Experimental data taken from article PMC4505863 (ACS Chemical Neuroscience, 2014).

Assays:
mice = conditions: cited from earlier work; for active dose range, head twitch: ref 36−38; for doses producing the head twitch in mice: 34−36
h5-HT2B = h5-HT2B (Homo sapiens, UniProt P41595); assay: Ca2+ mobilization assay; assay type: cell-based; conditions: for Emax: HEK293, read-out: h5-HT2B Emax; for EC50: h5-HT2B EC50, Ca2+ mobilization
5-HT1A = target: T1, 5-HT1A (Homo sapiens, UniProt P08908); assay: PDSP screening affinity 5-HT1A; assay type: binding
T1 sequence (P08908 1-422): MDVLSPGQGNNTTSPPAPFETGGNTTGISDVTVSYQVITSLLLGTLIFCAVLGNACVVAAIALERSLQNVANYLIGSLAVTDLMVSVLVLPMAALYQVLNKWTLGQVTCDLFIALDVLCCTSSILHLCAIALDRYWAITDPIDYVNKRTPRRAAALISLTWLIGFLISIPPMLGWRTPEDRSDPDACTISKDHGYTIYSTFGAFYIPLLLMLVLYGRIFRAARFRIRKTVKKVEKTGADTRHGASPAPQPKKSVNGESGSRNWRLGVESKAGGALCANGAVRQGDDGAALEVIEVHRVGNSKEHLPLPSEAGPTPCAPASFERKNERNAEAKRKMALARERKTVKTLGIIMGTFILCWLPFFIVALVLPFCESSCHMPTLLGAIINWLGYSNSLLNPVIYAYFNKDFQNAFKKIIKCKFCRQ

5-HT6 = 5-HT6 (Homo sapiens, UniProt P50406); assay: PDSP screening affinity 5-HT6; assay type: binding; conditions: 5-HT6 affinity
5-ht5a = 5-ht5a (Homo sapiens, UniProt P47898); assay: PDSP screening affinity 5-ht5a; assay type: binding; conditions: 5-ht5a affinity
h5-HT2C = target: T2, h5-HT2C (Homo sapiens, UniProt P28335); assay: Ca2+ mobilization assay; assay type: cell-based; conditions: for Emax: HEK293, read-out: h5HT2C Emax; for EC50: h5HT2C EC50, Ca2+ mobilization
T2 sequence (P28335 33-458): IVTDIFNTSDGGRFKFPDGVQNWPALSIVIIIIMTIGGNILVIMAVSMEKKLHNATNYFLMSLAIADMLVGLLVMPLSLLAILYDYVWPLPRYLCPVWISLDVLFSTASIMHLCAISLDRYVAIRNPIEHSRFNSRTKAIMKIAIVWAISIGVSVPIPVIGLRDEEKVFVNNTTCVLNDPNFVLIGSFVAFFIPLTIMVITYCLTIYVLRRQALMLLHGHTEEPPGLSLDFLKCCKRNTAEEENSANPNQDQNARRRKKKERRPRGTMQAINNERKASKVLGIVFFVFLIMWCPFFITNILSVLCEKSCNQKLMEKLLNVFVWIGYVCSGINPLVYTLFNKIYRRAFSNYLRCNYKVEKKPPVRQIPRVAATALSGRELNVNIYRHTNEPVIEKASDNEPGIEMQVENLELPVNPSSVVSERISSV

5-HT2B = 5-HT2B (Homo sapiens, UniProt P41595); assay: PDSP screening affinity 5-HT2B; assay type: binding
5-ht1e = 5-ht1e (Homo sapiens, UniProt P28566); assay: PDSP screening affinity 5-ht1e; assay type: binding
h5-HT2A = h5-HT2A (Homo sapiens, UniProt P28223); assay: Ca2+ mobilization assay; assay type: cell-based; conditions: for Emax: HEK293, read-out: h5-HT2A Emax, percentage of the maximum response to 5-HT
5-HT2A receptor [1] = target: T3, 5-HT2A receptor (Homo sapiens, UniProt P28223); assay: h5-HT2A affinity, agonist radioligand [125I]DOI; assay type: binding
human 5-HT2C receptor [2] = target: T4, human 5-HT2C receptor (Homo sapiens, UniProt P28335); assay: h5-HT2C affinity, antagonist radioligand [3H]mesulergine; assay type: binding
T4 sequence (P28335 33-458): T2 sequence (P28335 33-458)

Male C57BL/6J mice = assay: Mouse head twitch response; conditions: for activity in the HTR assay (active / inactive): doses up to 30 mg/kg
r5-HT2A = r5-HT2A (Rattus norvegicus, UniProt P14842); assay: Ca2+ mobilization assay; assay type: cell-based; conditions: for EC50: r5-HT2A EC50, Ca2+ mobilization; for Emax: read-out: r5-HT2A Emax, percentage of the maximum response to 5-HT
5-HT1D = 5-HT1D (Homo sapiens, UniProt P28221); assay: PDSP screening affinity 5-HT1D; assay type: binding
human 5-HT2C receptor [3] = target: T4, human 5-HT2C receptor; assay: h5-HT2C affinity, agonist radioligand [125I]DOI; assay type: binding
r5-HT2C = target: T5, r5-HT2C (Rattus norvegicus, UniProt P08909); assay: Ca2+ mobilization assay; assay type: cell-based; conditions: for Emax: read-out: r5-HT2C Emax
T5 sequence (P08909 33-460): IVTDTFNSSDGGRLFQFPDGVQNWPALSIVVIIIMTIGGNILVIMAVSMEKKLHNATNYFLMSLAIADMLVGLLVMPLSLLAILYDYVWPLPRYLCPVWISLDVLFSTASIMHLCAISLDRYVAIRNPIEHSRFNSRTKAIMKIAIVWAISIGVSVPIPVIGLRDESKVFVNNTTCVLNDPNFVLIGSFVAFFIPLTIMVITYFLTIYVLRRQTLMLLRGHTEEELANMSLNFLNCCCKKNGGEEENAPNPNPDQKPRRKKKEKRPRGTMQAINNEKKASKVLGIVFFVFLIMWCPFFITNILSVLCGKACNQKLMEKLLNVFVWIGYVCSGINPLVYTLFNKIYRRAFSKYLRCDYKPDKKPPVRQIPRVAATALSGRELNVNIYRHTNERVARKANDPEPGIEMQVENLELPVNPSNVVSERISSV

5-HT2A receptor [4] = target: T3, 5-HT2A receptor; assay: h5-HT2A affinity, antagonist radioligand [3H]ketanserin; assay type: binding
5-HT3 = target: T6, 5-HT3 (Homo sapiens, UniProt P46098); assay: PDSP screening affinity 5-HT3; assay type: binding
T6 sequence (P46098 24-478): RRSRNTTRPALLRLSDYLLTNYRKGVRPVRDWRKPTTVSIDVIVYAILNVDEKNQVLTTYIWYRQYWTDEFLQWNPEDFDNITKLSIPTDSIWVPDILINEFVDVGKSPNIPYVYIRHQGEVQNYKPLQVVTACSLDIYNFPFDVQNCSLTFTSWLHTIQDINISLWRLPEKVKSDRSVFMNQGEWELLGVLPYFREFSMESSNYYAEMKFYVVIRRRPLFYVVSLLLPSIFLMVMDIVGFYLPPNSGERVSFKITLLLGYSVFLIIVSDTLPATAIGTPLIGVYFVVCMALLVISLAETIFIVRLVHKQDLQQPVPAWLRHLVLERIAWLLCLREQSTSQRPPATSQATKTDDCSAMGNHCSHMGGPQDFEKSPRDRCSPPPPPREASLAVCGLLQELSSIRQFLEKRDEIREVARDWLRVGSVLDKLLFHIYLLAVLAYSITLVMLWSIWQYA

5-HT7 = 5-HT7 (Homo sapiens, UniProt P34969); assay: PDSP screening affinity 5-HT7; assay type: binding; conditions: 5-HT7 affinity
5-HT1B = 5-HT1B (Homo sapiens, UniProt P28222); assay: PDSP screening affinity 5-HT1B; assay type: binding; conditions: 5-HT1B affinity
[5] = r5-HT2C EC50, Ca2+ mobilization

Sequence of h5-HT2A (P28223 whole entry): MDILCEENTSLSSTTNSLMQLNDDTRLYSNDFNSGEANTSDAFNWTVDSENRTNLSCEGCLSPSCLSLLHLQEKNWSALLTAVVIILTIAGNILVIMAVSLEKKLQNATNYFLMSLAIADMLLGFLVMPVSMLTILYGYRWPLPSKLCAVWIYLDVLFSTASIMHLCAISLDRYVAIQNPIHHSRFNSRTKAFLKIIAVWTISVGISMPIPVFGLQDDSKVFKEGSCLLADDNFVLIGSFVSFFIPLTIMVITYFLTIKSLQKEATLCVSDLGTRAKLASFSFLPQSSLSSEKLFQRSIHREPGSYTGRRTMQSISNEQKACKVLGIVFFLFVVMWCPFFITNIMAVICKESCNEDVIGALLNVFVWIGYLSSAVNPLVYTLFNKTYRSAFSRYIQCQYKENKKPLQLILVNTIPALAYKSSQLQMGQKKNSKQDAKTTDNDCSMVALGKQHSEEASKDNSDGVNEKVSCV
T3 sequence (P28223 whole entry): as above
Sequence of h5-HT2B (P41595 whole entry): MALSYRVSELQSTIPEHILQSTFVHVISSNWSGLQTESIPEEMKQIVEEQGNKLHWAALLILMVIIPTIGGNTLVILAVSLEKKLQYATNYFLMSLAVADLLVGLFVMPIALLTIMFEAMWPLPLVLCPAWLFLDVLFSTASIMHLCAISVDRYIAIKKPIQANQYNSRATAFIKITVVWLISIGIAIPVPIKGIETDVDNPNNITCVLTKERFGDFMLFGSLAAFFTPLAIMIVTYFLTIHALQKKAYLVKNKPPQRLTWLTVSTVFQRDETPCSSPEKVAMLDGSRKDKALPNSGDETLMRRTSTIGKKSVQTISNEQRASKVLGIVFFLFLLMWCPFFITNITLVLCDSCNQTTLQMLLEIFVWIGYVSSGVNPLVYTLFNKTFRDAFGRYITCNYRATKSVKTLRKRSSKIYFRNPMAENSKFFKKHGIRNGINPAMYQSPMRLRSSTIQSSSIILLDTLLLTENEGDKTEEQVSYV
Sequence of r5-HT2A (P14842 whole entry): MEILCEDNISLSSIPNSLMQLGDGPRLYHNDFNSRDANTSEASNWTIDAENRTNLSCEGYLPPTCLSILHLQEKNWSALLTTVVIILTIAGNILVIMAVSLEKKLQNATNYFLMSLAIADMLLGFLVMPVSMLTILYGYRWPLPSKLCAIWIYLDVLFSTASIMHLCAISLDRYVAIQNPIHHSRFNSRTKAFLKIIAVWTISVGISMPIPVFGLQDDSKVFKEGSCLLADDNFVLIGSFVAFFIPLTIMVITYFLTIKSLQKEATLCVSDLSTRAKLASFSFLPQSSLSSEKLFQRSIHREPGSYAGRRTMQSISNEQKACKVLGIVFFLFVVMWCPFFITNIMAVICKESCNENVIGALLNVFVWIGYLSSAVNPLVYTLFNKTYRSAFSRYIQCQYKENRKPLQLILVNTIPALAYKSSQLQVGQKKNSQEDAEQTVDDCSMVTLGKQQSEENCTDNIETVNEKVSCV
Sequence of 5-HT1B (P28222 whole entry): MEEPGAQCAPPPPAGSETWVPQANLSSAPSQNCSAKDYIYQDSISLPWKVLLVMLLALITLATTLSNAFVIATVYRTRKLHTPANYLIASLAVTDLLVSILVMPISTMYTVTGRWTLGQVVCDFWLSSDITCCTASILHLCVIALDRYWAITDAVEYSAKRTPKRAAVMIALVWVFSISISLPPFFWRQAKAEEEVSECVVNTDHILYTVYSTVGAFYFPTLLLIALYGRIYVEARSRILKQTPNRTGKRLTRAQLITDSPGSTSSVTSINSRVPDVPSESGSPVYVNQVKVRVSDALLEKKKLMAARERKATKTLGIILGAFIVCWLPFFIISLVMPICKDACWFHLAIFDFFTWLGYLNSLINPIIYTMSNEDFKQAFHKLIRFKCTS
Sequence of 5-ht5a (P47898 whole entry): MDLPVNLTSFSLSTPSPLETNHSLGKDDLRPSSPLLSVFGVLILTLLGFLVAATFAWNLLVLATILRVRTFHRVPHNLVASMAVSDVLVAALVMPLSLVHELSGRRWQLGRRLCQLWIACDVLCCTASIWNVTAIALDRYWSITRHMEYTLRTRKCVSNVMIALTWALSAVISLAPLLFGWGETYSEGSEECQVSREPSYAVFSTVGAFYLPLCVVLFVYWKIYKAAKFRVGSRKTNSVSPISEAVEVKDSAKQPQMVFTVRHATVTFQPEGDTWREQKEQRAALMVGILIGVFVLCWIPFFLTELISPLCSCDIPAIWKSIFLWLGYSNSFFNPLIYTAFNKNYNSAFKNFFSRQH
Sequence of 5-HT2B (P41595 whole entry): as the sequence (P41595 whole entry) above
Sequence of 5-HT7 (P34969 whole entry): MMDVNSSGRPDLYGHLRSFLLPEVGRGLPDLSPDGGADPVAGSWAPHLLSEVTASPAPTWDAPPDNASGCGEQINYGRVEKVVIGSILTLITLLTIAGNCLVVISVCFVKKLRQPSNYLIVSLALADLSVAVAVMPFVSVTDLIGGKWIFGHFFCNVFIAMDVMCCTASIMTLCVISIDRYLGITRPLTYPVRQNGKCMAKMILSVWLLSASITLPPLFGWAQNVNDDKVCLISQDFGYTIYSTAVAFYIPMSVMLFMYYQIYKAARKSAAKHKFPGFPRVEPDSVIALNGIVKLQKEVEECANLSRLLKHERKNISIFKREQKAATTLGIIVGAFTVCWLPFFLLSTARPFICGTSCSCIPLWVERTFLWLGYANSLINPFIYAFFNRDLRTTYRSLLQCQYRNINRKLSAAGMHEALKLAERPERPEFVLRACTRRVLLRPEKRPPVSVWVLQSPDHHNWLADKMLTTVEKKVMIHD
Sequence of 5-ht1e (P28566 whole entry): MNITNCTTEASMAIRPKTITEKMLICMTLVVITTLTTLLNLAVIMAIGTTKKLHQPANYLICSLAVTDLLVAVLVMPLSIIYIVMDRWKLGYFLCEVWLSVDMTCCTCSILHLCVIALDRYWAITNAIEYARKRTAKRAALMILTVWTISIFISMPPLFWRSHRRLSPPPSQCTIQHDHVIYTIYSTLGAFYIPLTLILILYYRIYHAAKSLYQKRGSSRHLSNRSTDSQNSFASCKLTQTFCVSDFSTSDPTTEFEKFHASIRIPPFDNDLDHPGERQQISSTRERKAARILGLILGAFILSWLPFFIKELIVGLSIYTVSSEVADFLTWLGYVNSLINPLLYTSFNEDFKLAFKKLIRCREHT
Sequence of 5-HT1D (P28221 whole entry): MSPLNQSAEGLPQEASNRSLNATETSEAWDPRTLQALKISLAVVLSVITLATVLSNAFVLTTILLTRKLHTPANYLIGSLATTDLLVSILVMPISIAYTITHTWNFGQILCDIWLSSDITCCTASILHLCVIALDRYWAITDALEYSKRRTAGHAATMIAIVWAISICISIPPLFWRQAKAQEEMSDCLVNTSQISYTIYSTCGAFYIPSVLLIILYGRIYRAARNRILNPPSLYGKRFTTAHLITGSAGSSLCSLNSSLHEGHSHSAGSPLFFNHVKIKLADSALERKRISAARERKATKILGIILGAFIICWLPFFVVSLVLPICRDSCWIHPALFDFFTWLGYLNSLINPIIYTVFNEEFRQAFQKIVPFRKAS
Sequence of 5-HT6 (P50406 whole entry): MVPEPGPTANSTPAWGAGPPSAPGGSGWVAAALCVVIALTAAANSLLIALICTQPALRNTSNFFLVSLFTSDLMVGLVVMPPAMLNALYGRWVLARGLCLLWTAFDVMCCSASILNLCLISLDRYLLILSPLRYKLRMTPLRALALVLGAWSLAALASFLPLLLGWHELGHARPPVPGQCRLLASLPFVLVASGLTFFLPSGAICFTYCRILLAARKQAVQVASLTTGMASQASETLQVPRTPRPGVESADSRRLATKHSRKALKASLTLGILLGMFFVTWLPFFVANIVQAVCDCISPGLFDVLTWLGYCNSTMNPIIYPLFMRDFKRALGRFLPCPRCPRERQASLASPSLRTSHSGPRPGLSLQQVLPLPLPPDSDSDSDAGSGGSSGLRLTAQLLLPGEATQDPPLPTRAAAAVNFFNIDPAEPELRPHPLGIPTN

Q: Which “active dose range, head twitch” value (mice) does the source give for `CC(N)Cc1c[nH]c2ccccc12` (stereo not drawn) [α-methyltryptamine] here?
A: The value was 3 to 30 mg/kg.

Q: For `CCCSc1cc(OC)c(CCN)cc1OC` [Compound 2C-T-7, 2,5-dimethoxy-4-propylthiophenethylamine], which “doses producing the head twitch in mice” value (mice) is on record?
A: Its value is no more than 1 mg/kg.

Q: For `COc1cccc(CNCCc2c[nH]c3ccc(OC)cc23)c1` [Compound 5b, N-(3-Methoxybenzyl)-2-(5-methoxy-1H-indol-3-yl)ethan-1-amine], which Emax (h5-HT2B) is on record?
A: Its Emax is no more than 15%.

Q: And the EC50 (h5-HT2B)?
A: The EC50 was 949 nM.

Q: What about the Ki (5-HT1A; 5-HT1A affinity) of the same compound?
A: The Ki was 335 nM.

Q: And the Ki (5-HT1A; 5-HT1A pKi ± SEM)?
A: The Ki was 331 nM.

Q: What about the Ki (5-HT6) of the same compound?
A: The Ki was 25 nM.

Q: And the Ki (5-ht5a)?
A: The Ki was 1260 nM.

Q: What about the Emax (h5-HT2C) of the same compound?
A: Its Emax is 65 ± 5%.

Q: What about the EC50 (h5-HT2C) of the same compound?
A: The EC50 was 178 nM.

Q: And the Ki (5-HT2B; 5-HT2B affinity)?
A: Its Ki is 2.5 nM.

Q: What about the Ki (5-ht1e) of the same compound?
A: Its Ki is greater than 10000 nM.

Q: And the EC50 (h5-HT2A)?
A: Its EC50 is 6.2 nM.

Q: And the Emax (h5-HT2A)?
A: The Emax was 70 ± 1%.

Q: And the Ki (5-HT2A receptor [1])?
A: The Ki was 1.05 nM.

Q: What about the Ki (human 5-HT2C receptor [2]) of the same compound?
A: Its Ki is 38 nM.

Q: And the max counts (Male C57BL/6J mice; HTR counts, SC)?
A: Its max counts is 9.2.

Q: And the ED50 (Male C57BL/6J mice; Mus musculus, sc, read-out: ED50 mg/kg (95% CI), mouse head twitch)?
A: The ED50 was 3.28 mg/kg.

Q: What about the “activity in the HTR assay (active / inactive)” value (Male C57BL/6J mice; SC) of the same compound?
A: Its value is “active”.

Q: And the active doses (Male C57BL/6J mice; SC, mouse head twitch)?
A: The active doses was 10 mg/kg.

Q: And the “magnitude of peak effect × vehicle” value (Male C57BL/6J mice; SC, mouse head twitch)?
A: Its value is 3.7 × vehicle.

Q: What about the maximally effective dose (Male C57BL/6J mice; SC, mouse head twitch) of the same compound?
A: The maximally effective dose was 10 mg/kg.

Q: And the “HTR at 30 mg/kg” value (Male C57BL/6J mice; biphasic bell-shaped dose–response, 30 mg/kg SC)?
A: Its value is “inactive”.

Q: And the EC50 (r5-HT2A)?
A: Its EC50 is 34 nM.

Q: What about the Emax (r5-HT2A) of the same compound?
A: The Emax was 52.2 ± 0.9%.

Q: What about the Ki (5-HT1D) of the same compound?
A: The Ki was 334 nM.

Q: And the Ki (human 5-HT2C receptor [3])?
A: Its Ki is 5.89 nM.

Q: And the EC50 (r5-HT2C; [5])?
A: Its EC50 is 168 nM.

Q: And the EC50 (r5-HT2C; r5-HT2C pEC50 ± SEM, Ca2+ mobilization)?
A: Its EC50 is 166 nM.

Q: And the Emax (r5-HT2C)?
A: The Emax was 102 ± 2%.

Q: And the Ki (5-HT2A receptor [4])?
A: Its Ki is 7.76 nM.

Q: What about the Ki (5-HT3) of the same compound?
A: The Ki was greater than 10000 nM.

Q: And the Ki (5-HT7)?
A: Its Ki is 406 nM.

Q: What about the Ki (5-HT1B) of the same compound?
A: Its Ki is greater than 10000 nM.

Q: For `COc1ccc2[nH]cc(CCN(C)C)c2c1` [Compound 5-MeO-DMT, 5-MeO-N,N-dimethyltryptamine], which “active dose range, head twitch” value (mice) is on record?
A: The value was 3 to 30 mg/kg.

Q: What does the source list for `COc1ccc(CNCCc2cc(OC)c(I)cc2OC)cc1` [Compound 4b, N-(4-Methoxybenzyl)-2-(4-iodo-2,5-dimethoxyphenyl)ethan-1-amine]?
A: Emax (h5-HT2B): 38 ± 2%; EC50 (h5-HT2B): 87 nM; Ki (5-HT1A; 5-HT1A affinity): 1060 nM; Ki (5-HT6): 75 nM; Ki (5-ht5a): 1020 nM; Emax (h5-HT2C): 50 ± 7%; EC50 (h5-HT2C): 43.2 nM; Ki (5-HT2B; 5-HT2B pKi ± SEM): 16.6 nM; Ki (5-ht1e): 1280 nM; EC50 (h5-HT2A): 60 nM; Emax (h5-HT2A): 74.1 ± 0.8%; Ki (5-HT2A receptor [1]): 0.7 nM; Ki (human 5-HT2C receptor [2]): 14.1 nM; activity in the HTR assay (active / inactive) (Male C57BL/6J mice; SC): None of the phenethylamines or tryptamines with 4-substituted N-benzyl groups, 4b, 4e, 5c, or 5f, was active; EC50 (r5-HT2A): 50 nM; Emax (r5-HT2A): 53.8 ± 0.9%; Ki (5-HT1D): 325 nM; Ki (human 5-HT2C receptor [3]): 3.63 nM; EC50 (r5-HT2C; [5]): 132 nM; Emax (r5-HT2C): 97 ± 2%; Ki (5-HT2A receptor [4]): 11.7 nM; Ki (5-HT3): > 10000 nM; Ki (5-HT7): 1570 nM; Ki (5-HT1B): 1590 nM

Q: For `COc1cc(C[C@@H](C)N)c(OC)cc1C` [R-DOM, R-(−)-2,5-dimethoxy-4-methylamphetamine], which “doses producing the head twitch in mice” value (mice) is on record?
A: The value was no more than 1 mg/kg.
